The series is described as follows: mn = molality of the nth substance listed, in mol/kg. As to conditions: 298.15 K, 101 kPa, Liquid, Vibrating tube method.

Molecules are shown by their SMILES. ± gives the expanded uncertainty stated by the source.

In general, mass density refers to mass per unit of volume. On to `O=[N+]([O-])[O-].[Na+]` [sodium nitrate] + O, for which the mass density (m1 = 0.02) stood at 998.191 ± 0.075 kg/m3; the mass density (m1 = 0.1001) stood at 1002.65 ± 0.075 kg/m3; the mass density (m1 = 0.4001) came out at 1019.02 ± 0.082 kg/m3; the mass density (m1 = 0.8) worked out at 1040.02 ± 0.09 kg/m3; the mass density (m1 = 1.201) was 1060.25 ± 0.098 kg/m3; the mass density (m1 = 1.602) stood at 1079.67 ± 0.11 kg/m3.
On to `[Na+].[O-][Cl+3]([O-])([O-])[O-]` [sodium perchlorate] + O, for which the mass density runs as follows: (m1 = 0.0201) 998.644 ± 0.078 kg/m3; (m1 = 0.1) 1004.82 ± 0.079 kg/m3; (m1 = 0.4001) 1027.27 ± 0.087 kg/m3; (m1 = 0.8002) 1055.68 ± 0.098 kg/m3; (m1 = 1.2) 1083.49 ± 0.11 kg/m3; (m1 = 1.6) 1111.93 ± 0.12 kg/m3.
For the compound `O=S(=O)([O-])[O-].[Na+].[Na+]` [sodium sulfate] + O, the mass density runs as follows: (m1 = 0.0201) 999.638 ± 0.087 kg/m3; (m1 = 0.1001) 1009.69 ± 0.089 kg/m3; (m1 = 0.4002) 1045.75 ± 0.1 kg/m3; (m1 = 0.8001) 1090.93 ± 0.12 kg/m3; (m1 = 1) 1112.49 ± 0.13 kg/m3; (m1 = 1.2) 1133.41 ± 0.14 kg/m3.

The record behind these values is the NIST ThermoML archive (doi:10.1021/acs.jced.5b00298).
